In patent US4446133A, “1-Phenyl-4-carbamoyl piperazine compounds, process for preparation thereof and utilizations thereof” (Misuitoatsu Chemicals, Inc., priority 1980, dated 1984):

Tests used:
[1] = system: EL-4 leukemic cells; assay: Test 3: In-Vitro Test of Inhibition of Growth of Cancer Cell by Macrophage; type: cell-based; conditions: 8 mg/kg intraperitoneal to mice, macrophages collected after 4 days, mixed with EL-4 cells; control 80.2
Procedure: The results of the test of the action of the effective ingredient of the present invention on the macrophage will now be described with reference to the following Test 3. More specifically, the separated macrophage and EL-4 leukemic cell were mixed and cultured, and ^3 H-thymidine was added to a culture medium and the quantity of ^3 H-thymidine incorporated into the EL-4 cell was determined to examine the activity of the macrophage. When the macrophage is activated by administration of the effective ingredient of the present invention, inhibition of the growth of EL-4 cell, that is, phagocytosis of the cancer cell by the macrophage, is observed. Accordingly, if the take-in amount of ^3 H-thymidine is measured and this amount is reduced, it is confirmed that the macrophage has been activated. […] The dose was 8 mg per Kg of the body weight. To the control group, a physiological saline solution was similarly administered. After passage of 4 days, exuded abdominal cells were collected and deposited on a plastic Petri dish to collect macrophages. Then, 1×10^6 of so obtained macrophages and 1×10^5 of EL-4 leukemic cells of C57 BL/6J mouse were mixed and cultured in an RPMI 1640 culture medium to which 10% of bovine embryo serum was added (at 37° C. in the presence of 5% of CO2) for 24 hours. Then, 0.1μ Ci of ^3 H-thymidine was added and culturing was further conducted for 16 hours. Cells were collected on a filter paper from the culture medium and the amount of ^3 H-thymidine taken in was determined by a liquid scintillation counter. […] For comparison, the test was similarly carried out by using Levamisol hydrochloride.

[2] = system: Sarcoma 180; assay: Test 5: Test of Antitumor Effect to Sarcoma 180 by Subcutaneous Administration; type: in vivo, ICR female mice; conditions: 20 mg/kg subcutaneous; for D: average diameter of tumor, 2 weeks: control 10.8; for D: average diameter of tumor, 4 weeks: control 16.6; for D: average diameter of tumor, 6 weeks: control 20.3; for D: average diameter of tumor, 8 weeks: control 31.3; for D: average diameter of tumor, 10 weeks: control 40.5; for N: number of living mice, 0 weeks / N: number of living mice, 2 weeks / N: number of living mice, 4 weeks / N: number of living mice, 6 weeks / N: number of living mice, 8 weeks / N: number of living mice, 10 weeks: of 6 mice; for N: number of living mice, 0 weeks / N: number of living mice, 2 weeks / N: number of living mice, 4 weeks / N: number of living mice, 6 weeks: control 6; for N: number of living mice, 8 weeks: control 4; for N: number of living mice, 10 weeks: control 1
Procedure: To the control group, a physiological saline solution was similarly administered. […] The diameter D (mm) of the tumor was measured, and the average value and the number N of the living mice were determined to obtain results shown in Table 4.

[3] = system: adjuvant arthritis; assay: Test 2: Adjuvant Arthritis Test; type: in vivo, SD male rats; conditions: 5 mg/kg subcutaneous, 9 times, left hind leg, * P<0.05, ** P<0.01; for Swelling Ratio (average value ± standard variation), 15 days: control 84.4 ± 9.0; for Swelling Ratio (average value ± standard variation), 18 days: control 103.2 ± 9.7; for Swelling Ratio (average value ± standard variation), 21 days: control 107.5 ± 13.3
[4] = system: delayed hypersensitivity; assay: Test 1: Test of Reinforcement of Delayed Hypersensitivity (picryl chloride); type: in vivo, ICR male mice; conditions: 50 mg/kg oral, simultaneously with sensitization; 24 h after challenge; control 29.6 ± 1.9; * P<0.05, ** P<0.01
From the text: This system was used for the test of reinforcement of delayed hypersensitivity.
One group of eight ICR male mice, each having a body weight of about 30 g, were used for the test.
Sensitization was effected by coating a 7% solution of picryl chloride in a 4/1 mixture of olive oil and acetone on the shaved abdomen of the mouse.
Simultaneously with sensitization, a solution or suspension of the compound of the present invention in a 0.2% solution of carboxymethyl cellulose in a physiological saline was orally administered to the mouse at a dose of 50 mg per Kg of the body weight. To the control group, a 0.2% carboxymethyl cellulose solution in a physiological saline was similarly administered.
The delayed hypersensitivity was challenged 7 days after sensitization by gripping the ear of the mouse by a forceps wrapped with a felt impregnated with a 1% solution of picryl chloride in olive oil and coating the ear with the solution. The thickness of the ear was measured before challenging and 24 hours after challenging and the ratio of increase of the thickness (average value of both the ears in eight mice±standard deviation) was obtained as shown in Table 1.
For comparison, the test was similarly carried out by using Levamisole hydrochloride, and the obtained results are shown in Table 1. F.t tests were carried out. The group in which the test result was significant at a level of P<0.05 was marked by *, and the group in which the test result was significant at a level of P<0.01 was marked by **.

CCN(CC)C(=O)N1CCN(c2ccccc2)CC1 [drawing 23]
Take-in Ratio of 3H-thymidine (average value) [1]: 24.4%

CCOC(=O)c1ccc(N2CCN(C(=O)N(CC)CC)CC2)cc1 [drawing 38]
D: average diameter of tumor, 2 weeks [2]: 3.2 mm
D: average diameter of tumor, 4 weeks [2]: 3.4 mm
D: average diameter of tumor, 6 weeks [2]: 3.8 mm
D: average diameter of tumor, 8 weeks [2]: 2.5 mm
D: average diameter of tumor, 10 weeks [2]: 0.8 mm
N: number of living mice, 0 weeks [2]: 6
N: number of living mice, 2 weeks [2]: 6
N: number of living mice, 4 weeks [2]: 6
N: number of living mice, 6 weeks [2]: 6
N: number of living mice, 8 weeks [2]: 6
N: number of living mice, 10 weeks [2]: 6

CCN(CC)C(=O)N1CCN(c2ccccc2)CC1 [drawing 17]
Swelling Ratio (average value ± standard variation), 15 days [3]: 47.0 ± 8.0%
Swelling Ratio (average value ± standard variation), 18 days [3]: 52.4 ± 9.2%
Swelling Ratio (average value ± standard variation), 21 days [3]: 59.8 ± 12.1%

CCN(CC)C(=O)N1CCN(c2ccc(Cl)cc2)CC1 [drawing 18]
Swelling Ratio (average value ± standard variation), 15 days [3]: 57.9 ± 11.1%
Swelling Ratio (average value ± standard variation), 18 days [3]: 55.7 ± 9.7%
Swelling Ratio (average value ± standard variation), 21 days [3]: 62.8 ± 10.9%

CCN(CC)C(=O)N1CCN(c2ccc(C(=O)O)cc2)CC1 [drawing 39]
D: average diameter of tumor, 2 weeks [2]: 2.1 mm
D: average diameter of tumor, 4 weeks [2]: 4.4 mm
D: average diameter of tumor, 6 weeks [2]: 4.8 mm
D: average diameter of tumor, 8 weeks [2]: 3.9 mm
D: average diameter of tumor, 10 weeks [2]: 0 mm
N: number of living mice, 0 weeks [2]: 6
N: number of living mice, 2 weeks [2]: 6
N: number of living mice, 4 weeks [2]: 6
N: number of living mice, 6 weeks [2]: 6
N: number of living mice, 8 weeks [2]: 6
N: number of living mice, 10 weeks [2]: 6

CCN(CC)C(=O)N1CCN(c2ccccc2)CC1 [drawing 11]
Ratio of Increase of Ear Thickness (average value ± standard variation) [4]: 44.0 ± 5.0%

CCN(CC)C(=O)N1CCN(c2ccc(OC)cc2)CC1 [drawing 25]
Take-in Ratio of 3H-thymidine (average value) [1]: 27.7%

CCN(CC)C(=O)N1CCN(c2ccc(C(C)=O)cc2)CC1 [drawing 16]
Ratio of Increase of Ear Thickness (average value ± standard variation) [4]: 38.8 ± 3.5%

CCN(CC)C(=O)N1CCN(c2ccc(Cl)cc2)CC1 [drawing 36]
D: average diameter of tumor, 2 weeks [2]: 2.3 mm
D: average diameter of tumor, 4 weeks [2]: 2.1 mm
D: average diameter of tumor, 6 weeks [2]: 3.8 mm
D: average diameter of tumor, 8 weeks [2]: 0 mm
D: average diameter of tumor, 10 weeks [2]: 0 mm
N: number of living mice, 0 weeks [2]: 6
N: number of living mice, 2 weeks [2]: 6
N: number of living mice, 4 weeks [2]: 6
N: number of living mice, 6 weeks [2]: 6
N: number of living mice, 8 weeks [2]: 6
N: number of living mice, 10 weeks [2]: 6

CCN(CC)C(=O)N1CCN(c2ccc(OC)cc2)CC1 [drawing 13]
Ratio of Increase of Ear Thickness (average value ± standard variation) [4]: 40.1 ± 4.2%

CCOC(=O)c1ccc(N2CCN(C(=O)N(CC)CC)CC2)cc1 [drawing 20]
Swelling Ratio (average value ± standard variation), 15 days [3]: 63.7 ± 12.0%
Swelling Ratio (average value ± standard variation), 18 days [3]: 60.4 ± 9.2%
Swelling Ratio (average value ± standard variation), 21 days [3]: 66.9 ± 11.1%

CCN(CC)C(=O)N1CCN(c2ccc(C(=O)O)cc2)CC1 [drawing 15]
Ratio of Increase of Ear Thickness (average value ± standard variation) [4]: 37.7 ± 3.0%
